The values below are quoted from earlier work in patent US20250325495A1, “SILK NANOPARTICLE SYNTHESIS: TUNING SIZE, DISPERSITY, AND SURFACE CHEMISTRY FOR DRUG DELIVERY” (Trustees of Tufts College, priority 2022, published 2025).

The data set deals with GBM cell lines. As to conditions: compared with temozolomide.

As to `COc1cccc2c1C(=O)c1c(O)c3c(c(O)c1C2=O)C[C@@](O)(C(=O)CO)C[C@@H]3O[C@H]1C[C@H](N)[C@H](O)[C@H](C)O1` [doxorubicin], the cytotoxic effects result is “superior cytotoxic effects”.
